molecular target: b-Raf (V600E) (Homo sapiens (Human), UniProt P15056, V600E); conditions: read-out: b-Raf IC-50; AlphaScreen, 60 min pre-incubation, 3 hours reaction
Sequence (P15056 whole entry V600E): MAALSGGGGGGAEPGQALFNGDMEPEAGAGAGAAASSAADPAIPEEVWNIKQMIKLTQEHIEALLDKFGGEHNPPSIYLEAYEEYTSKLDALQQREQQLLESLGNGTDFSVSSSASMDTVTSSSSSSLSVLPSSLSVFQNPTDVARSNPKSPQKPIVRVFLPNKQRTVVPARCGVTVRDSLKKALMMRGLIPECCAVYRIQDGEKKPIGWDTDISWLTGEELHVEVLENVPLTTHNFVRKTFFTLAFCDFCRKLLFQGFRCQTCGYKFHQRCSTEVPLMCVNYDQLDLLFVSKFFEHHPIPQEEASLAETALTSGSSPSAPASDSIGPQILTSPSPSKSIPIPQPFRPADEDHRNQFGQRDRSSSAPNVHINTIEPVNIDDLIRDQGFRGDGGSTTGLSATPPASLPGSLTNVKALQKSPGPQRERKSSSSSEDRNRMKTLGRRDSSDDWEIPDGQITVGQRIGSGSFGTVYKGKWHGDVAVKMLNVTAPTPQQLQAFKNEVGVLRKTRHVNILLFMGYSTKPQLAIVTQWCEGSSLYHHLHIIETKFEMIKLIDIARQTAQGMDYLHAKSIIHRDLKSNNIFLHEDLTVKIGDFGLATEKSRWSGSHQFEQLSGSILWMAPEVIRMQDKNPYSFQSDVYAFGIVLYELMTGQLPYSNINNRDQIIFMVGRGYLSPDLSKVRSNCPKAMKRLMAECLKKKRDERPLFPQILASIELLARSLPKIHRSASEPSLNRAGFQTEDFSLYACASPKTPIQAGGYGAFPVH

| IC50 [nM] | SMILES |
| --- | --- |
| 2.5 | Cc1ccc(NC(=O)c2ccnc(C3COC3)c2)cc1-c1cc(N2CCOCC2)n(C)c(=O)c1 [Example 478, N-(4-methyl-3-(1-methyl-6-morpholino-2-oxo-1,2-dihydropyridin-4-yl)phenyl)-2-(oxetan-3-yl)isonicotinamide] |
| 1.8 | Cc1ccc(NC(=O)c2ccnc(C(C)(C)F)c2)cc1-c1cc(N2CCOCC2)n(C)c(=O)c1 [Example 479, 2-(2-fluoropropan-2-yl)-N-(4-methyl-3-(1-methyl-6-morpholino-2-oxo-1,2-dihydropyridin-4-yl)phenyl)isonicotinamide] |
| 0.6 | Cc1ccc(NC(=O)c2ccnc(C3(C#N)CC3)c2)cc1-c1cc(N2CCOCC2)n(C)c(=O)c1 [Example 480, 2-(1-cyanocyclopropyl)-N-(4-methyl-3-(1-methyl-6-morpholino-2-oxo-1,2-dihydropyridin-4-yl)phenyl)isonicotinamide] |
| 1.2 | CCn1cc(C(=O)Nc2ccc(C)c(-c3cc(N4CCOCC4)n(C)c(=O)c3)c2)cc(C(F)(F)F)c1=O [Example 481, 1-ethyl-N-(4-methyl-3-(1-methyl-6-morpholino-2-oxo-1,2-dihydropyridin-4-yl)phenyl)-6-oxo-5-(trifluoromethyl)-1,6-dihydropyridine-3-carboxamide] |
| 0.6 | Cc1ccc(NC(=O)c2ccnc(C(C)C)c2)cc1-c1cc(N2CCOCC2)n(C)c(=O)c1 [Example 482, 2-isopropyl-N-(4-methyl-3-(1-methyl-6-morpholino-2-oxo-1,2-dihydropyridin-4-yl)phenyl)isonicotinamide] |
| 3.5 | Cc1ccc(NC(=O)c2ccnc(C(C)(C)O)c2)cc1-c1cc(N2CCOCC2)n(C)c(=O)c1 [Example 483, 2-(2-hydroxypropan-2-yl)-N-(4-methyl-3-(1-methyl-6-morpholino-2-oxo-1,2-dihydropyridin-4-yl)phenyl)isonicotinamide] |
| 0.4 | Cc1ccc(NC(=O)c2cccc(C(F)F)c2)cc1-c1cc(N2CCOCC2)n(C)c(=O)c1 [Example 484, 3-(difluoromethyl)-N-(4-methyl-3-(1-methyl-6-morpholino-2-oxo-1,2-dihydropyridin-4-yl)phenyl)benzamide] |
| 1.1 | Cc1ccc(NC(=O)c2ccnc(C(F)(F)F)c2)cc1-c1cc(N2CCOCC2)n(C)c(=O)c1 [Example 485, N-(4-methyl-3-(1-methyl-6-morpholino-2-oxo-1,2-dihydropyridin-4-yl)phenyl)-2-(trifluoromethyl)isonicotinamide] |
| 1.1 | Cc1ccc(NC(=O)c2ccnc(C(F)F)c2)cc1-c1cc(N2CCOCC2)n(C)c(=O)c1 [Example 486, 2-(difluoromethyl)-N-(4-methyl-3-(1-methyl-6-morpholino-2-oxo-1,2-dihydropyridin-4-yl)phenyl)isonicotinamide] |
| 2.8 | Cc1ccc(NC(=O)c2ccnc(C(C)(C)C#N)c2)cc1-c1cc(N2CCOCC2)n(C)c(=O)c1 [Example 487, 2-(2-cyanopropan-2-yl)-N-(4-methyl-3-(1-methyl-6-morpholino-2-oxo-1,2-dihydropyridin-4-yl)phenyl)isonicotinamide] |
| 1.9 | Cc1ccc(NC(=O)c2cccc(S(C)(=O)=O)c2)cc1-c1cc(N2CCOCC2)n(C)c(=O)c1 [Example 488, N-(4-methyl-3-(1-methyl-6-morpholino-2-oxo-1,2-dihydropyridin-4-yl)phenyl)-3-(methylsulfonyl)benzamide] |
| 2.4 | Cc1ccc(NC(=O)c2cnnc(C(C)(C)C#N)c2)cc1-c1cc(N2CCOCC2)n(C)c(=O)c1 [Example 489, 6-(2-cyanopropan-2-yl)-N-(4-methyl-3-(1-methyl-6-morpholino-2-oxo-1,2-dihydropyridin-4-yl)phenyl)pyridazine-4-carboxamide] |
| 2.5 | CCN1CCN(c2cc(C(=O)Nc3ccc(C)c(-c4cc(N5CCOCC5)n(C)c(=O)c4)c3)cc(C(F)(F)F)c2)CC1 [Example 490, 3-(4-ethylpiperazin-1-yl)-N-(4-methyl-3-(1-methyl-6-morpholino-2-oxo-1,2-dihydropyridin-4-yl)phenyl)-5-(trifluoromethyl)benzamide] |
| 2.1 | Cc1ccc(NC(=O)c2cc(F)cc(N3CCOCC3)c2)cc1-c1cc(N2CCOCC2)n(C)c(=O)c1 [Example 491, 3-fluoro-N-(4-methyl-3-(1-methyl-6-morpholino-2-oxo-1,2-dihydropyridin-4-yl)phenyl)-5-morpholinobenzamide] |
| 3 | Cc1ccc(NC(=O)c2cccc(C3COC3)c2)cc1-c1cc(N2CCOCC2)n(C)c(=O)c1 [Example 492, N-(4-methyl-3-(1-methyl-6-morpholino-2-oxo-1,2-dihydropyridin-4-yl)phenyl)-3-(oxetan-3-yl)benzamide] |
| 16.8 | Cc1ccc(NC(=O)c2cccc(C(C)(C)S(C)(=O)=O)c2)cc1-c1cc(N2CCOCC2)n(C)c(=O)c1 [Example 494, N-(4-methyl-3-(1-methyl-6-morpholino-2-oxo-1,2-dihydropyridin-4-yl)phenyl)-3-(2-(methylsulfonyl)propan-2-yl)benzamide] |
| 4.5 | Cc1ccc(NC(=O)c2cnnc(C(F)(F)F)c2)cc1-c1cc(N2CCOCC2)n(C)c(=O)c1 [Example 495, N-(4-methyl-3-(1-methyl-6-morpholino-2-oxo-1,2-dihydropyridin-4-yl)phenyl)-6-(trifluoromethyl)pyridazine-4-carboxamide] |
| 0.9 | Cc1ccc(NC(=O)c2cnnc(C3CC3)c2)cc1-c1cc(N2CCOCC2)n(C)c(=O)c1 [Example 496, 6-cyclopropyl-N-(4-methyl-3-(1-methyl-6-morpholino-2-oxo-1,2-dihydropyridin-4-yl)phenyl)pyridazine-4-carboxamide] |
| 2.8 | Cc1ccc(NC(=O)c2cc(CN(C)C)cc(C(F)(F)F)c2)cc1-c1cc(N2CCOCC2)n(C)c(=O)c1 [Example 497, 3-((dimethylamino)methyl)-N-(4-methyl-3-(1-methyl-6-morpholino-2-oxo-1,2-dihydropyridin-4-yl)phenyl)-5-(trifluoromethyl)benzamide] |
| 21.9 | Cc1ncc(NC(=O)c2ccnc(C(C)(C)C#N)c2)cc1-c1cc(N2CCOCC2)n(C)c(=O)c1 [Example 499, 2-(2-cyanopropan-2-yl)-N-(1′,2-dimethyl-6′-morpholino-6′-oxo-1′,2′-dihydro-[3,4′-bipyridin]-5-yl)isonicotinamide] |
| 5.6 | Cc1ncc(NC(=O)c2ccnc(C(F)(F)F)c2)cc1-c1cc(N2CCOCC2)n(C)c(=O)c1 [Example 500] |
| 32.2 | Cc1ncc(NC(=O)c2ccnc(C(C)(C)O)c2)cc1-c1cc(N2CCOCC2)n(C)c(=O)c1 [Example 501, N-(1′,2-dimethyl-6′-morpholino-2′-oxo-1′,2′-dihydro-[3,4′-bipyridin]-5-yl)-2-(2-hydroxypropan-2-yl)isonicotinamide] |
| 20 | CCn1cc(C(=O)Nc2cnc(C)c(-c3cc(N4CCOCC4)n(C)c(=O)c3)c2)cc(C(F)(F)F)c1=O [Example 502, N-(1′,2-dimethyl-6′-morpholino-2′-oxo-1′,2′-dihydro-[3,4′-bipyridin]-5-yl)-1-ethyl-6-oxo-5-(trifluoromethyl)-1,6-dihydropyridine-3-carboxamide] |
| 200 | Cc1ncc(NC(=O)c2ccccc2)cc1-c1cc(N2CCOCC2)n(C)c(=O)c1 [Example 503, N-(1′,2-dimethyl-6′-morpholino-2′-oxo-1′,2′-dihydro-[3,4′-bipyridin]-5-yl)benzamide] |

From patent US9694016B2 (Novartis AG, priority 2013, dated 2017)
